In publication PMC8213057, “Targeting ALK2: An Open Science Approach to Developing Therapeutics for the Treatment of Diffuse Intrinsic Pontine Glioma” (Journal of Medicinal Chemistry, 2020):

Experiments:
SIK1 = SIK1 (Homo sapiens, UniProt P57059); experiment: biochemical; conditions: read-out: % enzyme activity, 1 μM; Run 1, Run 2
ITK = target: T1, ITK (Homo sapiens, UniProt Q08881); conditions: 1 μM; Run 1, Run 2
T1 sequence (Q08881 1-620): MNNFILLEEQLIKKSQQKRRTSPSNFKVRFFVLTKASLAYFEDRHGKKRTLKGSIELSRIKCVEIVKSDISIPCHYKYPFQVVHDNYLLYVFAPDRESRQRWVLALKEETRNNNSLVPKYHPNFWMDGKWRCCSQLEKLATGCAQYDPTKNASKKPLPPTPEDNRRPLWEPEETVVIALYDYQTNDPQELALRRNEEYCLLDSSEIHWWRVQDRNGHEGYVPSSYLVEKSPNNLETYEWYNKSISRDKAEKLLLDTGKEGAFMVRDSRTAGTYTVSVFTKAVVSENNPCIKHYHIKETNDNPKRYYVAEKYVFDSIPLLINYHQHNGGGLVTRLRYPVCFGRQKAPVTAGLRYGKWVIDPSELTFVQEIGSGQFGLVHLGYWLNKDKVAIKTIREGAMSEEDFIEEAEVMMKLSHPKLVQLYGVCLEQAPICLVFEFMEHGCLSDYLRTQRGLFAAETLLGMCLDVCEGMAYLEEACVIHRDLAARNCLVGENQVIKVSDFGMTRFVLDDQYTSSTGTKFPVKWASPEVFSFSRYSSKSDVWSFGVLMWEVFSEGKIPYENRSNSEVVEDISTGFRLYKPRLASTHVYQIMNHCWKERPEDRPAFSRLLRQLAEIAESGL

PKCnu/PRKD3 = target: T2, PKCnu/PRKD3 (Homo sapiens, UniProt O94806); experiment: biochemical; conditions: read-out: % enzyme activity, 1 μM; Run 1, Run 2
T2 sequence (O94806 1-890): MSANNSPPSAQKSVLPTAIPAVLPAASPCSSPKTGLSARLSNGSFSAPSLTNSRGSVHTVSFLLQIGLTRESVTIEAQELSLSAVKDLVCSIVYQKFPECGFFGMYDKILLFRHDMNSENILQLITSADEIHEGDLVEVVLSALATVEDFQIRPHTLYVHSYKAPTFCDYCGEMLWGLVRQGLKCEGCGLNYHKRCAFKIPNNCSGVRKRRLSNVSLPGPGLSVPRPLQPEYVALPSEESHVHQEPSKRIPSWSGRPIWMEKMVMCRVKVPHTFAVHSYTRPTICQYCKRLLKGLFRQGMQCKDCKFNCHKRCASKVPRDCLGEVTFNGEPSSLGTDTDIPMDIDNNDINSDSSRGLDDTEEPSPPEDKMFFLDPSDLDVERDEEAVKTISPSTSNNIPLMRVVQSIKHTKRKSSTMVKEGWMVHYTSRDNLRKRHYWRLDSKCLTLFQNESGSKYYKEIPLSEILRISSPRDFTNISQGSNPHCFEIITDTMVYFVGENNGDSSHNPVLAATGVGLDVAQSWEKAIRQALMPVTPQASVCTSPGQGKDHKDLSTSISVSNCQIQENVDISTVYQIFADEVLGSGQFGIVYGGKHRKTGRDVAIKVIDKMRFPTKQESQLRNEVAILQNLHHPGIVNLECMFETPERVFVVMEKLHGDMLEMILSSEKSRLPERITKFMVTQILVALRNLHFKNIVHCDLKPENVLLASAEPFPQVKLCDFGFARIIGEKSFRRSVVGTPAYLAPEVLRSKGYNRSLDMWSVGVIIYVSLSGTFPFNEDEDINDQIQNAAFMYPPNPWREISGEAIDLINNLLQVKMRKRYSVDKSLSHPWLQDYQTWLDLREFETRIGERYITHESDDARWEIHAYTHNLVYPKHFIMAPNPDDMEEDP

Caco-2 cells = experiment: Caco-2 permeability assay; conditions: 5 μM; for Papp_AB: Caco-2, apical to basolateral; for Papp_BA: Caco-2, basolateral to apical
TTBK2 = TTBK2 (Homo sapiens, UniProt Q6IQ55); conditions: 1 μM; Run 1, Run 2
MST2/STK3 = target: T3, MST2/STK3 (Homo sapiens, UniProt Q13188); experiment: biochemical; conditions: read-out: % enzyme activity, 1 μM; Run 1, Run 2
T3 sequence (Q13188 1-491): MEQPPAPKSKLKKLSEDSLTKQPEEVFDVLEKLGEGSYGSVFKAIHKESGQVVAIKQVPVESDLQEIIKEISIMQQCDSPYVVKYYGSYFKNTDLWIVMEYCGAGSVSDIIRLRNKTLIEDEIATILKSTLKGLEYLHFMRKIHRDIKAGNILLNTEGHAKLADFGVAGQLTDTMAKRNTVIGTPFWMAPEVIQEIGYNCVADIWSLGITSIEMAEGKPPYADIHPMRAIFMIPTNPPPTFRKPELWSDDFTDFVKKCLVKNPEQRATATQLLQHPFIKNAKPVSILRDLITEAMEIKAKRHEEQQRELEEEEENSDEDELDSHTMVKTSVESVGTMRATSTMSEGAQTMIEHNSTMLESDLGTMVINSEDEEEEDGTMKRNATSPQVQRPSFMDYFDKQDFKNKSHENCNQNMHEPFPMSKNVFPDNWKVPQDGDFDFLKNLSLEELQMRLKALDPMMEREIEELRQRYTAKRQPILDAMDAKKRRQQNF

SIK3 = SIK3 (Homo sapiens, UniProt Q9Y2K2); conditions: 1 μM; Run 1, Run 2
c-MET = c-MET (Homo sapiens, UniProt P08581); conditions: 1 μM; Run 1, Run 2
CK1epsilon = CK1epsilon (Homo sapiens, UniProt P49674); conditions: 1 μM; Run 1, Run 2
PIM3 = PIM3 (Homo sapiens, UniProt Q86V86); conditions: 1 μM; Run 1, Run 2
PKCd = PKCd (Homo sapiens, UniProt Q05655); conditions: 1 μM; Run 1, Run 2
PKCd, sequence (Q05655 whole entry): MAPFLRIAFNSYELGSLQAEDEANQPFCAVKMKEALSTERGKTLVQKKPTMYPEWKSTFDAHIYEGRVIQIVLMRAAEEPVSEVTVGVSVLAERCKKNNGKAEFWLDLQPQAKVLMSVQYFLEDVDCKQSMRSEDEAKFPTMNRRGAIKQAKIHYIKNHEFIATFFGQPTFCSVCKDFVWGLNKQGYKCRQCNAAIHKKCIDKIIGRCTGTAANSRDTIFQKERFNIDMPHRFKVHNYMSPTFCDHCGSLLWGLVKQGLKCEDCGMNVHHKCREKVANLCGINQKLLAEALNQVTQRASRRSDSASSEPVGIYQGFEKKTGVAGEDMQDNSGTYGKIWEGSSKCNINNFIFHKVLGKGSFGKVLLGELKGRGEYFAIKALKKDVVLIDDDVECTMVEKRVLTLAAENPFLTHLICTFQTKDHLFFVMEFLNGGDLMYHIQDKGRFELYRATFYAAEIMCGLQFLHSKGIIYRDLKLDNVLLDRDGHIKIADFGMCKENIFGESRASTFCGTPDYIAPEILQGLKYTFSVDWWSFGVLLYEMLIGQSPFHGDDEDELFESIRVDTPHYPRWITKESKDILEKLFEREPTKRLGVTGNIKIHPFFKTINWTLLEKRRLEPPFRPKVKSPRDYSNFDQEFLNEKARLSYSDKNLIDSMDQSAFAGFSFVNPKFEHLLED

CK1epsilon, sequence (P49674 whole entry): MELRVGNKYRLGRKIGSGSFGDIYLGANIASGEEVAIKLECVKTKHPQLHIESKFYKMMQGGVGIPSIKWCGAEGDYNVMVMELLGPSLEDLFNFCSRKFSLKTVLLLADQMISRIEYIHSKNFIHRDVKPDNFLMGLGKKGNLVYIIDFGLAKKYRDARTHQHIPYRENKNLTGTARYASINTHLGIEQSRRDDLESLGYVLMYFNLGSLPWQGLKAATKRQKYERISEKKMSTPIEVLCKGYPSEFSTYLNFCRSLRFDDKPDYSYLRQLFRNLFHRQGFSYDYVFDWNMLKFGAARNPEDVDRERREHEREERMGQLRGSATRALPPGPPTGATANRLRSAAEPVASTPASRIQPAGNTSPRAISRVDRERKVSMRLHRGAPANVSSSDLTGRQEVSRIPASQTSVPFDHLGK
SIK1, sequence (P57059 whole entry): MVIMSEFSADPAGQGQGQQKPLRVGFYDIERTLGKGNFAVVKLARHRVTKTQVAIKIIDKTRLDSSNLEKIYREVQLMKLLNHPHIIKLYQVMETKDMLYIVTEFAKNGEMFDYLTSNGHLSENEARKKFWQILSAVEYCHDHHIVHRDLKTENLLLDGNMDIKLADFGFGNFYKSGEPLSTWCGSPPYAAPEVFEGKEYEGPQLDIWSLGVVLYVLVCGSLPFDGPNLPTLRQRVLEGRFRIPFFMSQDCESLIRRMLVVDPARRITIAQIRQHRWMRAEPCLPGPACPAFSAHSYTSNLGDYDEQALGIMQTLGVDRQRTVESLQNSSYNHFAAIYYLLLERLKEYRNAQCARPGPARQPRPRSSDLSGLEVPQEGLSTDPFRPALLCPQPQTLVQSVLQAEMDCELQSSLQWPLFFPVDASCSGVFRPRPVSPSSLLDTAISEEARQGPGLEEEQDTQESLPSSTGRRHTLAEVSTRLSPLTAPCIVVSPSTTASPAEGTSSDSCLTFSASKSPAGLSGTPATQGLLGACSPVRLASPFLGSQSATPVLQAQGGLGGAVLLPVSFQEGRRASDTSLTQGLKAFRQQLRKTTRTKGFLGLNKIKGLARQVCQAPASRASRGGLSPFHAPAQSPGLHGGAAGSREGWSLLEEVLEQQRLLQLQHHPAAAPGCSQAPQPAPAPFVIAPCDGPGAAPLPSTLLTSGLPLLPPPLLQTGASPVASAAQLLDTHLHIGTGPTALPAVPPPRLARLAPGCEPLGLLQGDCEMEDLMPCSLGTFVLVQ
TTBK2, sequence (Q6IQ55 whole entry): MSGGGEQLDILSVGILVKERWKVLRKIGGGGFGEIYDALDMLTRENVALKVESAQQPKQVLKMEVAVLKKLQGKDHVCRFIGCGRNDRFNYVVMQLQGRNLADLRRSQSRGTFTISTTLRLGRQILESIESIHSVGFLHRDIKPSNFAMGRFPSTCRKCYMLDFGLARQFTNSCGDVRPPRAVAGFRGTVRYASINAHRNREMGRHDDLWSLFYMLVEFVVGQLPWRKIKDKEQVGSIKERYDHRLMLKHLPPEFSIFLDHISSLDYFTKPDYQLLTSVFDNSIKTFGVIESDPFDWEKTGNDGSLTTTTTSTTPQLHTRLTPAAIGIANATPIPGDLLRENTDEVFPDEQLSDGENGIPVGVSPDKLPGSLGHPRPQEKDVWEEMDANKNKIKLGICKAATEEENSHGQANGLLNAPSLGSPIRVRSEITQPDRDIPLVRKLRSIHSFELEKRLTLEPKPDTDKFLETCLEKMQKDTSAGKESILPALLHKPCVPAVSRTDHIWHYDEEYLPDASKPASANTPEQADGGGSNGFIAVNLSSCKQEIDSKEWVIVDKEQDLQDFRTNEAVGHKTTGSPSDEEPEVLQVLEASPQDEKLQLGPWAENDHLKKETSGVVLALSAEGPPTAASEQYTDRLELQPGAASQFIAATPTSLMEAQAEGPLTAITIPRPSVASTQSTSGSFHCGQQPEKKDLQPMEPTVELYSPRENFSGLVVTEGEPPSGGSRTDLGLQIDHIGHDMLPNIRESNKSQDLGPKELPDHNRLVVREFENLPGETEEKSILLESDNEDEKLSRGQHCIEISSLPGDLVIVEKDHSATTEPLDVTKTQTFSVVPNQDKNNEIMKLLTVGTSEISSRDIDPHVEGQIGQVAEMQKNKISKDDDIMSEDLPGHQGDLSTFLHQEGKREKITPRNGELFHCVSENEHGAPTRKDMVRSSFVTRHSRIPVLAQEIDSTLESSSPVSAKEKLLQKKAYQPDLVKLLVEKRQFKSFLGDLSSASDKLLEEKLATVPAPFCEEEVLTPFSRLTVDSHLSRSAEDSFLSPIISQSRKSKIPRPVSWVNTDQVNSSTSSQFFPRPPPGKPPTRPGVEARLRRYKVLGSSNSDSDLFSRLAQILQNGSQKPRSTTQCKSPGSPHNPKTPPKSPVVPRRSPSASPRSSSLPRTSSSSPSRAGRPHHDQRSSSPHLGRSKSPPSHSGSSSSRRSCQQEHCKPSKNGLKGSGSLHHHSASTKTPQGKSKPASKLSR
SIK3, sequence (Q9Y2K2 whole entry): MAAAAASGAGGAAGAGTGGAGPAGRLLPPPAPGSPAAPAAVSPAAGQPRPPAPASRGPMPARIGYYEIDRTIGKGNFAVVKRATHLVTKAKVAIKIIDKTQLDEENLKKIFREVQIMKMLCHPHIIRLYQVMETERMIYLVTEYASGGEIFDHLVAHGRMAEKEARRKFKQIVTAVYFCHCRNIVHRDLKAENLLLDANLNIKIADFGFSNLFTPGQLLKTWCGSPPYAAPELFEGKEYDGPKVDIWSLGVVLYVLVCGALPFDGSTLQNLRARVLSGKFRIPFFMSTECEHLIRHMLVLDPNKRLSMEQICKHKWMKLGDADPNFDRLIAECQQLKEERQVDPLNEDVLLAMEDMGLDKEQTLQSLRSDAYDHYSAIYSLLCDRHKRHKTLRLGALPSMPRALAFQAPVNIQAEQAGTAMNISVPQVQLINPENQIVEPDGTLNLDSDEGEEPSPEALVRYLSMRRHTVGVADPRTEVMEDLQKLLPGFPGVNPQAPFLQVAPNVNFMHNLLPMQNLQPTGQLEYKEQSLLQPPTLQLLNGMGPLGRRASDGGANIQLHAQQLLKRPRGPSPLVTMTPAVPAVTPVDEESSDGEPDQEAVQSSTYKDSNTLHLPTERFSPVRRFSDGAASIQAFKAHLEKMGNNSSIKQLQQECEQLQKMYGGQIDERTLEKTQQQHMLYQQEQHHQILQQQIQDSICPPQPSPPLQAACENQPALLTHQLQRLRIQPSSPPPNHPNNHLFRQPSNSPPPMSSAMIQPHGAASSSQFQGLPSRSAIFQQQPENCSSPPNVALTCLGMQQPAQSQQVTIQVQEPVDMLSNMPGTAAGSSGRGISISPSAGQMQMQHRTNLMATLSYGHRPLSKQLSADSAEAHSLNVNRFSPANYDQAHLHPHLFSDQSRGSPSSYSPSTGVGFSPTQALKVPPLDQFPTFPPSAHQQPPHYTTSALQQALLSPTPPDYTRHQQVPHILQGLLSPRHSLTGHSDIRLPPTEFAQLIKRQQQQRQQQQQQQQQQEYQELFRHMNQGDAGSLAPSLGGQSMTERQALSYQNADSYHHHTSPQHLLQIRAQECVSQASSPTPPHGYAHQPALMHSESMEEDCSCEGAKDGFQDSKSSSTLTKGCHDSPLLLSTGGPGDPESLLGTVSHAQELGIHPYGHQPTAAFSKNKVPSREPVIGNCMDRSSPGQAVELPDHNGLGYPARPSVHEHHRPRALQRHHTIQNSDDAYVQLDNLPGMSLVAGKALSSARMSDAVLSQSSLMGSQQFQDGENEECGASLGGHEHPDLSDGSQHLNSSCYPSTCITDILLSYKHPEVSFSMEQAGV

Structure (SMILES)	remaining activity at 1 µM (SIK1) [%]	% enzyme activity (ITK) [%]	remaining activity at 1 µM (PKCnu/PRKD3) [%]	Papp_AB (Caco-2 cells)	Papp_BA (Caco-2 cells)	% enzyme activity (TTBK2) [%]	remaining activity at 1 µM (MST2/STK3) [%]	% enzyme activity (SIK3) [%]	% enzyme activity (c-MET) [%]	% enzyme activity (CK1epsilon) [%]	% enzyme activity (PIM3) [%]	% enzyme activity (PKCd) [%]
COc1cc(-c2cncc(-c3ccc(N4C[C@@H](C)N(C)[C@@H](C)C4)cc3)c2C)cc(F)c1C(N)=O [Compound 26c, 2-Fluoro-6-methoxy-4-(4-methyl-5-(4-((3R,5S)-3,4,5-trimethylpiperazin-1-yl)phenyl)pyridin-3-yl)benzamide]	93.8	100.51	89	4.3 10^-6 cm/s	14.5 10^-6 cm/s	96.48	102	82.93	106.76	90.08	106.19	100.12
COc1cc(-c2cncc(-c3ccc(N4CCN(C)CC4)cc3)c2C)cc(F)c1C(N)=O [Compound 26a, 2-Fluoro-6-methoxy-4-(4-methyl-5-(4-(4-methylpiperazin-1-yl)phenyl)pyridin-3-yl)benzamide]	82.9	103.48	82.2	5.5 10^-6 cm/s	16.2 10^-6 cm/s	94.62	95.6	58.19	98.28	93.07	99.10	97.72
